# Patent EP1566447A1, “Glimepiride- and insulin-induced glycosylphosphatidylinositol-specific phospholipase C regulation” (priority 2004, dated 2005)
# How the values were obtained:
# [1] = tested on: IRS-1 and pp59^Lyn; assay: tyrosine phosphorylation of pp59^Lyn and IRS-1; assay type: cell-based, rat
# Experimental: Polypeptides separated by SDS-PAGE were transferred to polyvinylidene difluoride membranes using the semidry procedure as described in "Müller, G. et al., (2001) Mol. Cell. Biol. 21: 4553-4567". Washed membranes were incubated anti-caveolin-1 (1:2000), anti-pp59^Lyn (1:1250), anti-aP (1:500), anti-5'-Nuc (1:750) and anti-IRS-1 (1:2000) antibodies for 4 h at 15°C. Washed membranes were incubated with horseradish peroxidase-coupled secondary goat anti-mouse (1:2000) or goat anti-rabbit IgG (1:4000) antibodies. Labeled proteins were visualized by enhanced chemiluminescence.
# Fig. 7: Effect of GPI-2350 on the glimepiride/insulin-induced activation of signaling proteins. Isolated rat adipocytes were treated (5 min, 37°C) without or with GPI-2350 (Panels A, 50 µM; Panels B, increasing conc.) and then incubated (120 min, 37°C) in the absence or presence of insulin (10 nM) or glimepiride (20 µM). IRS-1 and pp59^Lyn were immunoprecipitated from the defatted postnuclear infranatant (see Materials and Methods) and solubilized combined hc/IcDIGs, respectively, and then immunoblotted for phosphotyrosine. […]
# [2] = target: phospholipase A2 (honey bee venom) (Apis mellifera, UniProt P00630); assay type: biochemical; conditions: 50 µM
# Sequence of phospholipase A2 (honey bee venom) (P00630 34-167 limits assumed): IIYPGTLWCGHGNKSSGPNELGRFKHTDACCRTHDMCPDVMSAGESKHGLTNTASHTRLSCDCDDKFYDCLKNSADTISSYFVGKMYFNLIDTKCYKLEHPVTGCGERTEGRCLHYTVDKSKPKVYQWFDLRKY
# [3] = target: T1, lipoprotein lipase (LPL) (Bos taurus, UniProt P11151); assay: selectivity: lipoprotein lipase assay; assay type: biochemical, bovine; conditions: 50 µM
# T1 construct: purchased Sigma/Aldrich (Deisenhofen, Germany); host or cells: bovine milk
# T1 sequence (P11151 29-478): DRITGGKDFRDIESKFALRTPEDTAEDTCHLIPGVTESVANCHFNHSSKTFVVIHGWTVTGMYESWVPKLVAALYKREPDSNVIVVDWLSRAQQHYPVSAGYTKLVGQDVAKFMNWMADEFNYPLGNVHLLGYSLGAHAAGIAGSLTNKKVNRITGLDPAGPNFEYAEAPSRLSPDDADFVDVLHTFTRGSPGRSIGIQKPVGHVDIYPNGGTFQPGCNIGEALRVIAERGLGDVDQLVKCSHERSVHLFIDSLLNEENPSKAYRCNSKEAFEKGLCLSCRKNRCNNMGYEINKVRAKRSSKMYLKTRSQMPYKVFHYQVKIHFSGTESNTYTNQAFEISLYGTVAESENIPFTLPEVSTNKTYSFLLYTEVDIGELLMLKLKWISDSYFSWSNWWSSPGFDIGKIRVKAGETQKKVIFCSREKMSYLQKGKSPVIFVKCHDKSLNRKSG
# Experimental: Hormone-sensitive lipase (HSL) and lipoprotein lipase (LPL) were measured using a radiolabeled triolein droplet emulsion as described in "Vertesy et al., (2002) Journal Antibiotics 55:480-494". Pancreatic lipase (PL) was determined by incubation of 0.25 mmol tributyrin in 2 ml of 5 mM Tris/HCl (pH 6.5), 6 mM sodium taurodeoxycholate, 150 mM NaCl, 1 mM CaCl2 with porcine PL and colipase in the same buffer using a recording pH stat (stirring at 1000 rpm at 25°C) with the pH adjusted to 6.5. PC-PLC was assayed by incubation of 0.2 ml of 10 mM dipalmitoyllecithin, 0.1 ml of 10 mM SDC and 0.1 ml of 0.03 M CaCl2 with bacterial PC-PLC (in 50 mM Tris/HCl, pH 7.5, 0.1 % BSA) for 10 min at 37°C. The reaction was terminated by addition of 0.1 ml of 50 % TCA and subsequently of 2.5 ml of […]. After centrifugation (1500xg, 15 min), 0.2-ml portions of the upper methanol/water phase (~ 1.33 ml) was removed, supplemented with 0.5 ml of 60 % HClO4, then heated at 170°C for 1 h and finally analyzed for inorganic phosphate. Mammalian PI-PLC was measured by incubation of 0.1 ml of 10 mM PI, 0.1 ml of 0.8 % sodium deoxycholate, 0.1 % BSA, 0.2 ml of 100 mM sodium borate (pH 7.5) and rat liver PI-PLC for 20 min at 37°C. The reaction was terminated and further processed as described for the PC-PLC. […] Radioactive phosphatidic acid was detected by phosphorimaging. […]
smiles,measurement,setting,value
"CCCCCCCCCCCCP1(=O)O[C@@H]2[C@H](O)[C@@H](O)[C@H](O)[C@@H](O)[C@@H]2O1 (mixture of isomers) [GPI-2350, myo-inositol-1,2-cyclo-dodecylphosphonic acid]",effect on tyrosine phosphorylation of pp59^Lyn and IRS-1 in response to glimepiride,[1]; 50 µM,almost complete blockade
same,effect on metabolic insulin signaling (tyrosine phosphorylation of IRS-1 and inhibition of lipolysis),[1]; insulin-stimulated,only marginally reduced
same,effect on phospholipase activity,[2],not significantly affected
same,effect on lipase activity,[3],not significantly affected
